Experimental data from patent US11566007B2, “Ras inhibitors” (Revolution Medicines, Inc., priority 2019, dated 2023).
pEC50, pIC50: −log10 of the molar value. Like-named read-outs stand apart in the source and are kept apart here.

Key:
[1] = target: KRAS WT (Homo sapiens (Human), UniProt P01116+P62937); assay: Ras-Raf (BRAF RBD) disruption / FRET / MOA assay, KRAS WT; assay type: biochemical
Procedure: (§1) The purpose of this biochemical assay is to measure the ability of test compounds to facilitate ternary complex formation between a nucleotide-loaded Ras isoform and cyclophilin A; the resulting ternary complex disrupts binding to a BRAF^RBD construct, inhibiting Ras signaling through a RAF effector.
(§2) Compound is present in plate wells as a 10-point 3-fold dilution series starting at a final concentration of 30 μM. After incubation at 25° C. for 3 hours, a mixture of Anti-His Eu-W1024 and anti-GST allophycocyanin is then added to assay sample wells at final concentrations of 10 nM and 50 nM, respectively, and the reaction incubated for an additional 1.5 hours. […] Compounds that facilitate disruption of a Ras:RAF complex are identified as those eliciting a decrease in the TR-FRET ratio relative to DMSO control wells.
(§3) This protocol may also be executed substituting other Ras proteins or nucleotides.
(§4) The purpose of this biochemical assay was to measure the ability of test compounds to facilitate ternary complex formation between a nucleotide-loaded K-Ras isoform and Cyclophilin A; the resulting ternary complex disrupts binding to a BRAF^RBD construct, inhibiting K-Ras signaling through a RAF effector. Data is reported as IC50 values.
as §2, with “Compound was” for “Compound is”, “allophycocyanin was” for “allophycocyanin is”, “a K-Ras:RAF” for “a Ras:RAF”, “complex were” for “complex are”

[2] = target: K-Ras G12C (Homo sapiens (Human), UniProt P01116+P62937, G12C); assay: Ras-Raf (BRAF RBD) disruption / FRET / MOA assay, KRAS G12C; assay type: biochemical; details: KRAS G12C, Ras-Raf disruption/FRET/MOA assay
Procedure: as §1, §2, §3, §4
as §2, with “Compound was” for “Compound is”, “allophycocyanin was” for “allophycocyanin is”, “a K-Ras:RAF” for “a Ras:RAF”, “complex were” for “complex are”

[3] = target: KRAS G13D (Homo sapiens (Human), UniProt P01116+P62937, G13D); assay: Ras-Raf (BRAF RBD) disruption / FRET / MOA assay, KRAS G13D; assay type: biochemical
Procedure: as §1, §2, §3, §4
as §2, with “Compound was” for “Compound is”, “allophycocyanin was” for “allophycocyanin is”, “a K-Ras:RAF” for “a Ras:RAF”, “complex were” for “complex are”

[4] = target: KRAS G12S (Homo sapiens (Human), UniProt P01116+P62937, G12S); assay: Ras-Raf (BRAF RBD) disruption / FRET / MOA assay, KRAS G12S; assay type: biochemical; details: class symbols
Method in brief: (§5)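 Ras:RAF disruption was scored as a fall in TR-FRET ratio relative to DMSO. Compound ranged in 3-fold steps over 10 points from 30 μM final; incubation ran 3 h at 25° C, detection antibodies a further 1.5 h. Reported as IC50.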

[5] = target: KRAS G12V (Homo sapiens (Human), UniProt P01116+P62937, G12V); assay: Ras-Raf (BRAF RBD) disruption / FRET / MOA assay, KRAS G12V; assay type: biochemical
Procedure: as §1, §2, §3, §4
as §2, with “Compound was” for “Compound is”, “allophycocyanin was” for “allophycocyanin is”, “a K-Ras:RAF” for “a Ras:RAF”, “complex were” for “complex are”

[6] = system: NCI-H358 (K-Ras G12C); assay: CellTiter-Glo cell viability assay, NCI-H358; assay type: cell-based, human; details: Homo sapiens, NCI-H358, 120 h, NCI-H358, 5-day treatment; class symbols; read-out: Additional H358 Cell Viability assay data (K-Ras G12C, IC50)
Method in brief: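 Luminescent viability readout on day 5 after direct compound addition to plated cells; plates sat ~30 min at room temperature before reading. Values expressed as percent of mean DMSO signal, curves fit with a four-parameter logistic model.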

[7] = target: KRAS G12D (Homo sapiens (Human), UniProt P01116+P62937, G12D); assay: Ras-Raf (BRAF RBD) disruption / FRET / MOA assay, KRAS G12D; assay type: biochemical; details: class symbols
Method in brief: as §5

[8] = system: NCI-H358 cells (K-Ras G12C); assay: Potency assay: pERK in NCI-H358 cells; assay type: cell-based, human; details: H358 KRAS G12C, read-out: pERK EC50
Method in brief: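 Compounds are dosed as ten 3-fold dilutions from a 10 mM DMSO stock, in duplicate, and left on cells for 4 h at 37 °C, 5% CO2. Phospho-ERK1/2 is then quantified by AlphaLISA SureFire Ultra or In-Cell Western, and IC50 is derived from a 4-parameter sigmoid against log concentration.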

[9] = target: NRAS G12C (Homo sapiens (Human), UniProt P01111+P62937, G12C); assay: Ras-Raf (BRAF RBD) disruption / FRET / MOA assay, NRAS G12C; assay type: biochemical
Procedure: as §1, §2
This protocol may also be executed substituting other Ras proteins or nucleotides. […]

[10] = target: K-Ras G13C (Homo sapiens (Human), UniProt P01116+P62937, G13C); assay: Ras-Raf (BRAF RBD) disruption / FRET / MOA assay, KRAS G13C; assay type: biochemical; details: KRAS G13C, Ras-Raf disruption/FRET/MOA assay
Procedure: as §1, §2, §3, §4
as §2, with “Compound was” for “Compound is”, “allophycocyanin was” for “allophycocyanin is”, “a K-Ras:RAF” for “a Ras:RAF”, “complex were” for “complex are”

[11] = read-out: IC50* KRAS WT FRET data
[12] = read-out: IC50* KRAS G12C FRET data
[13] = read-out: IC50* KRAS G13D FRET data
[14] = Ras-Raf disruption/FRET/MOA assay, read-out: KRAS G12S FRET data IC50
[15] = read-out: IC50* KRAS G12V FRET data
[16] = Ras-Raf disruption/FRET/MOA assay, read-out: KRAS G12D FRET data IC50
[17] = read-out: IC50* NRAS G12C FRET data
[18] = read-out: IC50* KRAS G13C FRET data

KRAS G12V, sequence (P01116-2 other isoform, or with tags, fused parts or gaps G12V): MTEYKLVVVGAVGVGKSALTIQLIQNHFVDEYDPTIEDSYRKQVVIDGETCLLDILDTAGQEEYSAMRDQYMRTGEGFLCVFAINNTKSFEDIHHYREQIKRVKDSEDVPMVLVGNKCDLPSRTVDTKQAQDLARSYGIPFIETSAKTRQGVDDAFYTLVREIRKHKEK
KRAS G12V, sequence (P62937 whole entry): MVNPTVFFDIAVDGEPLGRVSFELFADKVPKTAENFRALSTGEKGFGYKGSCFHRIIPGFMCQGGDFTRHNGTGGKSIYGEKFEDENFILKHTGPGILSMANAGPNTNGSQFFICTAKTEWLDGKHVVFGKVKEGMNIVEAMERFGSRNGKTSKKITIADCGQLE
NRAS G12C, sequence (P01111 whole entry G12C): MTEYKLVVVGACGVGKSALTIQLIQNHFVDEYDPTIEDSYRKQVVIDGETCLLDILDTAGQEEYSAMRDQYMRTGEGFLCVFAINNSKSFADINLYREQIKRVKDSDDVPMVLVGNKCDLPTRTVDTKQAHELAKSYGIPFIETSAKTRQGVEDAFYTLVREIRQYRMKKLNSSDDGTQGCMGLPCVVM
NRAS G12C, sequence (P62937 whole entry): as the sequence (P62937 whole entry) above
KRAS WT, sequence (P01116-2 other isoform, or with tags, fused parts or gaps): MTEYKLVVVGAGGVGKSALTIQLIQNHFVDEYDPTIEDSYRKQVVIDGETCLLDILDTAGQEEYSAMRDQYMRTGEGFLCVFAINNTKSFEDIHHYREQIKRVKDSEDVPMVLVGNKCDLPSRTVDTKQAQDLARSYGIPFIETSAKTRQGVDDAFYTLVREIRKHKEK
KRAS WT, sequence (P62937 whole entry, canonical isoform): as the sequence (P62937 whole entry) above
KRAS G13D, sequence (P01116-2 other isoform, or with tags, fused parts or gaps G13D): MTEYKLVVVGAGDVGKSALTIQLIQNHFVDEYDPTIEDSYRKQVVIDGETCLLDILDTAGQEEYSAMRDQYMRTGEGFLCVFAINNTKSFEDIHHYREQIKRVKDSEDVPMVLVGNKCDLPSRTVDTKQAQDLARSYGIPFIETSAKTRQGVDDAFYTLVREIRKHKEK
KRAS G13D, sequence (P62937 whole entry): as the sequence (P62937 whole entry) above
KRAS G12D, sequence (P01116-2 other isoform, or with tags, fused parts or gaps G12D): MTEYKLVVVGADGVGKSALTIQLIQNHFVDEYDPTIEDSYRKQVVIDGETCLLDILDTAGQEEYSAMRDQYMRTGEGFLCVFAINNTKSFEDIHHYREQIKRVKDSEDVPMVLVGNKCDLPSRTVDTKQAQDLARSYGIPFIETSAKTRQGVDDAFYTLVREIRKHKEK
KRAS G12D, sequence (P62937 whole entry): as the sequence (P62937 whole entry) above
KRAS G12S, sequence (P01116-2 other isoform, or with tags, fused parts or gaps G12S): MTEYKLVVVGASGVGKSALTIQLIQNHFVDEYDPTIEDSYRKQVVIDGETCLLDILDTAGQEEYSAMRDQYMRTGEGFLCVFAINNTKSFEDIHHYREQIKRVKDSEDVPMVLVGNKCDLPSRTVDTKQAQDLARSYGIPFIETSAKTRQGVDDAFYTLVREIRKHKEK
KRAS G12S, sequence (P62937 whole entry): as the sequence (P62937 whole entry) above
K-Ras G13C, sequence (P01116-2 other isoform, or with tags, fused parts or gaps G13C): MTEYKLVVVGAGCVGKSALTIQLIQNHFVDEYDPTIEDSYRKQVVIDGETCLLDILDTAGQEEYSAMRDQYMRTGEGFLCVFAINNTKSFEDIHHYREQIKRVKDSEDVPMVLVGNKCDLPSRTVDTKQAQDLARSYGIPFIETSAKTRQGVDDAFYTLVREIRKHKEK
K-Ras G13C, sequence (P62937 whole entry): as the sequence (P62937 whole entry) above
K-Ras G12C, sequence (P01116-2 other isoform, or with tags, fused parts or gaps G12C): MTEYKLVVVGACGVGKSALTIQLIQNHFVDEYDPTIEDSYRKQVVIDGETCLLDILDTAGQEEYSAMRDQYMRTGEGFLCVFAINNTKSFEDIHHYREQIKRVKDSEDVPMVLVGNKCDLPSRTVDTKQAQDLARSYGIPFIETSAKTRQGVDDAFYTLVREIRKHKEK
K-Ras G12C, sequence (P62937 whole entry): as the sequence (P62937 whole entry) above

Row | Structure (SMILES) | pIC50 [1, 11] | pIC50 [2, 12] | pIC50 [3, 13] | pIC50 [4, 14] | pIC50 [5, 15] | pIC50 [6] | pIC50 [7, 16] | pEC50 [8] | pIC50 [9, 17] | pIC50 [10, 18] | pEC50 ([8]; Homo sapiens, NCI-H358) | pIC50 ([1]; IC50* KRAS WT FRET data) | pIC50 ([9]; IC50* NRAS G12C FRET data) | pIC50 ([2]; IC50* KRAS G12C FRET data) | pIC50 ([3]; IC50* KRAS G13D FRET data) | pIC50 ([4]; KRAS G12S FRET data IC50, Ras-Raf disruption/FRET/MOA assay) | pIC50 ([5]; IC50* KRAS G12V FRET data) | pIC50 ([10]; IC50* KRAS G13C FRET data) | pIC50 ([7]; KRAS G12D FRET data IC50, Ras-Raf disruption/FRET/MOA assay)
1 | CCn1c(-c2cnccc2COC)c2c3cc(ccc31)-c1cc(O)cc(c1)C[C@H](NC(=O)[C@H](C(C)C)N(C)C(=O)[C@H]1CCN(C(=O)C#CCN(C)C)C1)C(=O)N1CCC[C@H](N1)C(=O)OCC(C)(C)C2 (atropisomer, axis not shown) [Example A107] | 6.00 to 7.00 | > 8.00 | 6.00 to 7.00 | 6.00 to 7.00 | 6.00 to 7.00 | > 8.00 | 6.00 to 7.00 | > 5.30 |  |  |  |  |  |  |  |  |  |  | 
2 | C=CC(=O)N1CC[C@H](C(=O)N(C)[C@H](C(=O)N[C@H]2Cc3cccc(c3)-c3ccc4c(c3)c(c(-c3cnccc3COC)n4CC)CC(C)(C)COC(=O)[C@@H]3CCCN(N3)C2=O)C(C)C)C1 (atropisomer, axis not shown) [Example A119] |  | 6.00 to 7.00 | < 5.00 | 5.00 to 6.00 | < 5.00 | 7.00 to 8.00 | < 5.00 |  | 6.00 to 7.00 | 5.00 to 6.00 | > 5.30 |  |  |  |  |  |  |  | 
3 | CCn1c(-c2cccnc2[C@H](C)OC)c2c3cc(ccc31)-c1cccc(c1)C[C@H](NC(=O)[C@H](C(C)C)N(C)C(=O)[C@H]1CCN(C(=O)/C=C/CN3CC(OC)C3)C1)C(=O)N1CCC[C@H](N1)C(=O)OCC(C)(C)C2 (atropisomer, axis not shown) [Example A204] | 5.00 to 6.00 | 7.00 to 8.00 |  | 5.00 to 6.00 | 5.00 to 6.00 |  | < 5.00 |  | 7.00 to 8.00 | 5.00 to 6.00 | > 5.30 |  |  |  |  |  |  |  | 
4 | C=CC(=O)Nc1ccc(C(=O)N(C)[C@H](C(=O)N[C@H]2Cc3cc(O)cc(c3)-c3ccc4c(c3)c(c(-c3cccnc3[C@H](C)OC)n4CC)CC(C)(C)COC(=O)[C@@H]3CCCN(N3)C2=O)C(C)C)cn1 (atropisomer, axis not shown) [Example A336] | 6.00 to 7.00 |  | 6.00 to 7.00 | 6.00 to 7.00 | 6.00 to 7.00 |  | 5.00 to 6.00 | > 5.30 | > 8.00 | > 8.00 |  |  |  |  |  |  |  |  | 
5 | C=CC(=O)N1CC(CN2C(=O)O[C@H](C)[C@H]2C(=O)N[C@H]2Cc3cccc(c3)-c3ccc4c(c3)c(c(-c3cccnc3[C@H](C)OC)n4CC)CC(C)(C)COC(=O)[C@@H]3CCCN(N3)C2=O)C1 (atropisomer, axis not shown) [Example A460] |  |  |  |  |  |  |  |  |  |  |  | < 5.00 | 5.00 to 6.00 | 5.00 to 6.00 | < 5.00 | < 5.00 | < 5.00 | 5.00 to 6.00 | < 5.00
6 | C=CC(=O)N1CCN(C(=O)N(C)[C@H](C(=O)N[C@H]2Cc3nc(cs3)-c3ccc4c(c3)c(c(-c3cccnc3[C@H](C)OC)n4CC(F)(F)F)CC(C)(C)COC(=O)[C@@H]3CCCN(N3)C2=O)C(C)C)CC1 (atropisomer, axis not shown) [Example A465] | 7.00 to 8.00 | 7.00 to 8.00 | 7.00 to 8.00 | 7.00 to 8.00 |  |  | 7.00 to 8.00 | > 5.30 | 7.00 to 8.00 | 7.00 to 8.00 |  |  |  |  |  |  |  |  | 
